Data as given in PMC2861360 (Chemistry & biology, 2008).

Experiments:
wt PikAIV M6 = wt PikAIV M6 (Streptomyces venezuelae, UniProt Q9ZGI2); assay: SDS-PAGE autoradiography of self-loading; format: biochemical; settings: 0.4 mM; HEPES pH 7.4, RT, 5 min; covalent; labelled compound
wt EryAIII M6 = biological target: T1, wt EryAIII M6 (Saccharopolyspora erythraea, UniProt Q03133); assay: SDS-PAGE autoradiography of self-loading; format: biochemical; settings: HEPES pH 7.4, RT; covalent; labelled compound; data not shown
T1 sequence (Q03133 1468-2900 limits assumed): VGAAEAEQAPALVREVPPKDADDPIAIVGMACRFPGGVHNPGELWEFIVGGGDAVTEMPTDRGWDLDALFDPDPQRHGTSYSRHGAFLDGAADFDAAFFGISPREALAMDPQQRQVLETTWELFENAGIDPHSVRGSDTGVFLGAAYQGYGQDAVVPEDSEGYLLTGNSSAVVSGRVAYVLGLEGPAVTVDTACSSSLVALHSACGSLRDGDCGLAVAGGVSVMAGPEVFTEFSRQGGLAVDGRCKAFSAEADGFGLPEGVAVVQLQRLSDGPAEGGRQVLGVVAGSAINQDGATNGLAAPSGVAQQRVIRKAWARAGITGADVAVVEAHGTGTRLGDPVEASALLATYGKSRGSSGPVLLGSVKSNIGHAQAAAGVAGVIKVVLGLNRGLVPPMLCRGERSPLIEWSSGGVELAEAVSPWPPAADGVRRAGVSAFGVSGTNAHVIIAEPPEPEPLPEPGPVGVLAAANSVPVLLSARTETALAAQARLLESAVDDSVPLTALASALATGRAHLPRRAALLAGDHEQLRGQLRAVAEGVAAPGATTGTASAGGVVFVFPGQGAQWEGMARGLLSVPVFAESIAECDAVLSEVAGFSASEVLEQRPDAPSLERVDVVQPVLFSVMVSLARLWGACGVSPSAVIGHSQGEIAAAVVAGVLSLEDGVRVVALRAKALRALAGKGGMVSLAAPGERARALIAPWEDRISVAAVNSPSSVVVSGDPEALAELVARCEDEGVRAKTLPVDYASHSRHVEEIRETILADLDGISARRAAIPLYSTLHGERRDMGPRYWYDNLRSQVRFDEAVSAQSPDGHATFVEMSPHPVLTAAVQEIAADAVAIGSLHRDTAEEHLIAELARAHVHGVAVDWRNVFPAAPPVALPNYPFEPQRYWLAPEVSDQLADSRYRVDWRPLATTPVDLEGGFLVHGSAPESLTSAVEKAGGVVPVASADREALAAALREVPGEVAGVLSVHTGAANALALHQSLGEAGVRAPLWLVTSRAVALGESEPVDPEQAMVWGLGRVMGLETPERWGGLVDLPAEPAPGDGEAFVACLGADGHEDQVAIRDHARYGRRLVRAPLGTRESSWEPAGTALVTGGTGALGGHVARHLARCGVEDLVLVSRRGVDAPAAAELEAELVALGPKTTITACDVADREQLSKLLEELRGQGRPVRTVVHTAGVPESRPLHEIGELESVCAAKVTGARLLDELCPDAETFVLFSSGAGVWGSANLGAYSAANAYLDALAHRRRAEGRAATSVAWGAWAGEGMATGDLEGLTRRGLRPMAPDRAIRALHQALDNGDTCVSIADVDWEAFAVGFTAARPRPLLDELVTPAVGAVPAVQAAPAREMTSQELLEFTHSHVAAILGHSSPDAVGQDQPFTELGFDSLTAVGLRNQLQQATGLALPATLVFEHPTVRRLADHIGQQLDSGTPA

Chain of wt PikAIV M6 (Q9ZGI2 whole entry): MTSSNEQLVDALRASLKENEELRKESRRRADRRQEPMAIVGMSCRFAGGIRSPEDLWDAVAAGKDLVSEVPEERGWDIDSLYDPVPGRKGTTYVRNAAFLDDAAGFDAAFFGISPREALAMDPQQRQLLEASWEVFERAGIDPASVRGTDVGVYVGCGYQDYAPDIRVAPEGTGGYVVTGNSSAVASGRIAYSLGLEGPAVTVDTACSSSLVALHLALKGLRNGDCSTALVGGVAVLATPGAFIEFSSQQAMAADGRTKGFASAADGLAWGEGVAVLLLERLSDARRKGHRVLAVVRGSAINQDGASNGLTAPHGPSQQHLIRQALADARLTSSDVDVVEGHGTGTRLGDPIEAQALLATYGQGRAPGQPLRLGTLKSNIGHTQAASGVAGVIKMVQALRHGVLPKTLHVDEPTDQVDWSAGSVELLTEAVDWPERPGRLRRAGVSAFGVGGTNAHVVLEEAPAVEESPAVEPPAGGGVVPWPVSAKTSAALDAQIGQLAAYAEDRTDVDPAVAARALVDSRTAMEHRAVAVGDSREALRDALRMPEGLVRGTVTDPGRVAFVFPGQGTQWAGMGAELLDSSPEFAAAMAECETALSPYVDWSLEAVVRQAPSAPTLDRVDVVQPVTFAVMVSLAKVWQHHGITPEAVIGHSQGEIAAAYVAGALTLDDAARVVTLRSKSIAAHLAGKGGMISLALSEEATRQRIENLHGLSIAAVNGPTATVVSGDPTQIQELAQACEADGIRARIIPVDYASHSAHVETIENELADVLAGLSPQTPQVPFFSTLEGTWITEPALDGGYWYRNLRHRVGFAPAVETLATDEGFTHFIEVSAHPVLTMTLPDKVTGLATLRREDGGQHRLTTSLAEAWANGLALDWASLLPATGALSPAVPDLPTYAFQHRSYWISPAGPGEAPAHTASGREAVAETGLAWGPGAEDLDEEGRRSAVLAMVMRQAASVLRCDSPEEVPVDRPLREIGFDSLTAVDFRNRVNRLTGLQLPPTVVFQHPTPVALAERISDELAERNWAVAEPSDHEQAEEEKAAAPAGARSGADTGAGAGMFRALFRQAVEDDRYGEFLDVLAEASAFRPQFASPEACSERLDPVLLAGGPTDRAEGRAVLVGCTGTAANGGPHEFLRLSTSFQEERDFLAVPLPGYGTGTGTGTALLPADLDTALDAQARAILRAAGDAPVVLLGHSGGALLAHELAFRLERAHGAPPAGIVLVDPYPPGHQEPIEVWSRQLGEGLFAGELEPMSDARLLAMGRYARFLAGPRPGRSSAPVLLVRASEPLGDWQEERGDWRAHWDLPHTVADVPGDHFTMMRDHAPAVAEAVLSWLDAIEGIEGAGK

For `CC(C(=O)O)C(=O)SCCNC(=O)CCNC(=O)[C@H](O)C(C)(C)COP(=O)(O)OP(=O)(O)OC[C@H]1O[C@@H](n2cnc3c(N)ncnc32)[C@H](O)[C@@H]1OP(=O)(O)O` (some centres unmarked) [methylmalonyl-CoA], which “SDS-PAGE autoradiography of self-loading” value (wt PikAIV M6) is on record?
Its value is “The wt PikAIV M6 was able to self-load and transfer methylmalonyl-CoA, but not malonyl-CoA”.

And the “SDS-PAGE autoradiography of self-loading” value (wt EryAIII M6)?
The value was “wt EryAIII M6 was able to self-load methylmalonyl-CoA”.
